Values joined by “and” are separate entries in the source; they are usually repeats but may differ in a detail not shown here. Identical values can stand only once.
Experiments:
Format in all cases: functional
Mus musculus [1] = assay: Evaluation of Radioprotective effect of the intravenously administered compound (0.1 mg/kg on day 0,4,8) after irradiation on mice with 9 Gy of X-ray on day 25
Mus musculus [2] = assay: Evaluation of Radioprotective effect of the intravenously administered compound (0.1 mg/kg on day 0,4,8) after irradiation on mice with 9 Gy of X-ray on day 15
Mus musculus [3] = assay: Evaluation of Radioprotective effect of the intravenously administered compound (0.1 mg/kg on day 0,4,8) after irradiation on mice with 9 Gy of X-ray on day 20
Mus musculus [4] = assay: Evaluation of Radioprotective effect of the intravenously administered compound (0.1 mg/kg on day 0,4,8) after irradiation on mice with 9 Gy of X-ray on day 35
Mus musculus [5] = assay: Evaluation of Radioprotective effect of the intravenously administered compound (0.1 mg/kg on day 0,4,8) after irradiation on mice with 9 Gy of X-ray on day 10

Structure (SMILES)	Survival (Mus musculus [1]) [%]	Survival (Mus musculus [2])	Survival (Mus musculus [3]) [%]	Survival (Mus musculus [4])	Survival (Mus musculus [5]) [%]
CCCCCCCCCCCCCCCCCCCCCC[C@@H](O)C(=O)N[C@@H](CO[C@H]1O[C@@H](CO)[C@H](O)[C@H](O)[C@@H]1O)[C@H](O)[C@H](O)CCCCCCCCCCCCCC	80	100%	80	90% and 80%	100
CCCCCCCCCCCCCCCCCCCCCCCC(=O)NC(CO[C@H]1O[C@@H](CO)[C@H](O)[C@H](O)[C@@H]1O)[C@H](O)CCCCCCCCCCCCCCC (single isomer, unassigned)	90	100%	90	90%	100
CCCCCCCCCCCCCCCCCCCCCC[C@@H](O)C(=O)NC(CO[C@H]1O[C@@H](CO)[C@H](O)[C@H](O)[C@@H]1O)[C@H](O)CCCCCCCCCCCCCCC (single isomer, unassigned)	90	100%	90	90%	100
CCCCCCCCCCCCCCCCCCCCCCCC(=O)N[C@@H](CO[C@H]1O[C@@H](CO)[C@H](O)[C@H](O)[C@@H]1O)C(O)[C@H](O)CCCCCCCCCCCCCC (single isomer, unassigned)	90	100% and 90%	90	90%	100
CCCCCCCCCCCCCCC[C@@H](O)[C@H](CO[C@H]1O[C@@H](CO)[C@H](O)[C@H](O)[C@@H]1O)NC(=O)CCCCCCCCCCCCC (stereo in doubt; form 1)	90	100% and 90%	90	90%	100
CCCCCCCCCCCCCCC[C@@H](O)[C@H](CO[C@H]1O[C@@H](CO)[C@H](O)[C@H](O)[C@@H]1O)NC(=O)CCCCCCCCCCCCC (stereo in doubt; form 2)	20	–	20	20%	–
